Data from patent US20120172228A1, “ALCOHOL ALKOXYLATES AS ADJUVANTS FOR AGROCHEMICAL FORMULATIONS” (SYNGENTA CROP PROTECTION, LLC, priority 2009, published 2012).

Experiments:
Format in all cases: in vivo
[1] = test system: brachiaria platyphyla (BRAPL), digitaria sanguinalis (DIGSA), polygonum convolvulus (POLCO), amaranthus tuberculatus (AMATU); experiment: Adjuvant with herbicide mesotrione, track sprayer, mean across four weed species
[2] = test system: brachiaria platyphyla (BRAPL); experiment: Adjuvant with herbicide mesotrione on BRAPL
[3] = test system: digitaria sanguinalis (DIGSA); experiment: Adjuvant with herbicide mesotrione on DIGSA
[4] = test system: polygonum convolvulus (POLCO); experiment: Adjuvant with herbicide mesotrione on POLCO
[5] = test system: amaranthus tuberculatus (AMATU); experiment: Adjuvant with herbicide mesotrione on AMATU
[6] = test system: brachiaria platyphyla (BRAPL), digitaria sanguinalis (DIGSA), polygonum convolvulus (POLCO); experiment: Adjuvant with herbicide mesotrione, mean across three weed species (Example 20); settings: mesotrione 30, 60 or 90 g/ha; Sample 13 0.2%, Tween 20 0.5%; 14 and 21 days
Experimental: (§1) In this example Sample 13 from Table 1 was compared to the oil adjuvant blend Turbocharge™. The herbicide fomesafen was applied to the weed species xanthium strumarium (XANST), setaria viridis (SETVI), abutilon theophrasti (ABUTH), and chenopodium album (CHEAL) at rates of 60 or 120 grams per hectare, using a laboratory track sprayer. Each experiment was replicated four times and the percentage damage to the weeds was assessed visually at time periods of 7, 14 and 21 days after application. Each adjuvant was applied at a rate of 0.5% of the volume of the spray water. Four effects were evaluated: pesticide rate (2 levels), adjuvant type (two levels), weed species (four levels) and days after application (three levels). A standard simple linear model was constructed to judge the significance of these effects. […] The effect of each adjuvant was pulled out from the model and the least significant differences evaluated using a Student's t method. […]
In this example the rate response of the butylene oxide adjuvant 13 of Table 1 was measured to display the excellent performance of this adjuvant compared to the commercial adjuvant Tween™20, used at a rate of 0.5% by volume. […] In each case the experiments were replicated four times and the percentage damage to the weeds was assessed visually at time periods of 14 and 21 days after application.

[7] = test system: brachiaria decumbens (BRADE), digitaria sanguinalis (DIGSA), polygonum convolvulus (POLCO), amaranthus retroflexus (AMARE); experiment: Adjuvant with herbicide mesotrione, mean across four weed species (Example 28); settings: mesotrione 45 or 90 g/ha; Sample 28 0.2%, Tween 20 0.5%; 7, 14 and 21 days
Experimental: as §1, with “levels).” for “levels). A standard simple linear model was constructed to judge the significance of these effects.”
In this example the rate response of a non-ethoxylated butylene oxide adjuvant was measured at an adjuvant rate of 0.2% by volume in order to display the excellent performance of this adjuvant compared to the commercial adjuvant' Tween 20, which was used at a rate of 0.5% by volume. […] In each case the experiments were replicated three times and the percentage damage to the weeds was assessed visually at time periods of 7, 14 and 21 days after application. […]

soybean = experiment: Phytotoxicity of adjuvant to soybean; settings: 7 days after spray application
Experimental: (§2) The plants were sprayed with water at a rate of approximately 500 litres per hectare, the water containing 0.1% v/v or 0.2% v/v adjuvant. The plants were assessed for phytotoxicity 7 days after spray application. Each experiment was replicated twice and the results averaged. In the control experiment the plants were sprayed with water and no phytotoxicity was observed.

French bean = experiment: Phytotoxicity of adjuvant to French bean; settings: 7 days after spray application
Experimental: as §2

Chinese cabbage = experiment: Phytotoxicity of adjuvant to Chinese cabbage; settings: 7 days after spray application
Experimental: as §2

[8] = mesotrione 45 and 90 g/ha, adjuvants 0.5% of spray water, 7, 14 and 21 days after application
[9] = mesotrione 45 or 90 g/ha, Sample 27 0.2%, Tween 20 0.5%, 7, 14 and 21 days
[10] = mesotrione 30, 60 or 90 g/ha, Sample 13 0.2%, Tween 20 0.5%, 14 and 21 days

Compound: Tween 20
- mean efficacy (percentage damage to the weeds), All weeds [1, 8]: 63.861; B %
- mean efficacy (percentage damage to the weeds), All weeds [1, 9]: 54.54; A %
- mean efficacy (percentage damage to the weeds), BRAPL [2, 10]: 26.11; B %
- mean efficacy (percentage damage to the weeds), BRAPL [2, 8]: 44.72; B %
- mean efficacy (percentage damage to the weeds), BRAPL [2, 9]: 33.06; B %
- mean efficacy (percentage damage to the weeds), DIGSA [3, 10]: 45.55; A %
- mean efficacy (percentage damage to the weeds), DIGSA [3, 8]: 48.33; B %
- mean efficacy (percentage damage to the weeds), DIGSA [3, 9]: 41.67; A %
- mean efficacy (percentage damage to the weeds), POLCO [4, 10]: 32.77; B %
- mean efficacy (percentage damage to the weeds), POLCO [4, 8]: 95.44; A %
- mean efficacy (percentage damage to the weeds), POLCO [4, 9]: 73.61; A %
- mean efficacy (percentage damage to the weeds), AMATU [5, 8]: 66.94; AB %
- mean efficacy (percentage damage to the weeds), AMATU [5, 9]: 69.86; A %
- mean efficacy (percentage damage to the weeds), All weeds [6]: 26.11; B %
- Mean kill (%) [7]: 65.8%

Compound: CCCCCCCC/C=C\CCCCCCCCOCCOCCOCCOCCOCCOCCOCCOCCOCCOCCO [Genapol O100]
- Soybean % phytotoxicity (soybean; 0.1% v/v adjuvant in water): 3.5%
- Soybean % phytotoxicity (soybean; 0.2% v/v adjuvant in water): 15%
- French bean % phytotoxicity (French bean; 0.1% v/v adjuvant in water): 5%
- French bean % phytotoxicity (French bean; 0.2% v/v adjuvant in water): 10%
- Chinese cabbage % phytotoxicity (Chinese cabbage; 0.1% v/v adjuvant in water): 2%
- Chinese cabbage % phytotoxicity (Chinese cabbage; 0.2% v/v adjuvant in water): 10%
